Data taken from paper PMC2809336, “Antidepressant Interactions with the NMDA NR1-1b Subunit” (Journal of Biophysics, 2008).
Entries after “also recorded” stand apart in the source; their conditions may differ.

Tests used:
Assay type in all cases: binding
NMDA NR1-1b S1S2 domain [1] = molecular target: T1, NMDA NR1-1b S1S2 domain (Rattus norvegicus, UniProt P35439); test: Kd determination by intrinsic tryptophan fluorescence (double reciprocal, Benesi-Hildebrand plot); conditions: 5.29 μM NR1-1b S1S2, buffer 3 pH 6.5, 25°C, error at 95% confidence level
T1 construct: (His)8-TSG-LVPRG(thrombin cut site)-S1(394-544)-GT-S2(663-800); (His)8-TSG-LVPRG (His8 tag with thrombin cut site) (N); made in house; host or cells: E. coli Origami B(DE3)
T1 sequence (P35439 394-544): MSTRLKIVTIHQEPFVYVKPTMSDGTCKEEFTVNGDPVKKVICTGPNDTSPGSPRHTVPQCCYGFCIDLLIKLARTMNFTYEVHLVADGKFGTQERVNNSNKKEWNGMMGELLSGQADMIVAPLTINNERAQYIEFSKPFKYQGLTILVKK
T1 sequence (P35439 663-800): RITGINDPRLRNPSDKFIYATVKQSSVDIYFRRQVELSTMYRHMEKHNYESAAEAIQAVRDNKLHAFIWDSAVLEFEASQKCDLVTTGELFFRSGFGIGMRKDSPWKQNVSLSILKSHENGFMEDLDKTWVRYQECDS
Method: (§1) Intrinsic fluorescence studies were performed in a Cary Eclipse fluorometer at 25°C. All emission scans were acquired from 300 to 400 nm upon excitation at 290 nm, with 10 nm excitation and emission slit widths in a 10 mm-path-length cell. Excitation was performed at 290 nm to minimize interference from both tyrosine residues in the NMDA NR1-1b S1S2 domain as well as the aromatic antidepressants being studied. Before data acquisition, samples were incubated for thirty seconds in the sample holder at 25°C. […] Thus, data was reported without a buffer subtraction.
(§2) Protein samples were at a final concentration of 5.29 μM in buffer 3 (10 mM MES, pH 6.5, 25 mM NaCl, 1 mM glycine). All antidepressants were solubilized in 100% methanol to the highest attainable concentrations. To account for any effects methanol had on fluorescence intensity, protein spectra with methanol were collected, allowing direct comparison between samples with and without antidepressant. Each data set consisted of at least three independent emission spectra of identically prepared samples. The data is reported with error determined at the 95% confidence level.
A double reciprocal plot was used to determine Kd, which derives from the Benesi-Hildebrand relationship, provided there is a 1 : 1 binding stoichiometry. […] When 1/ΔF is plotted against 1/[L], a linear relationship exists. The intercept on the x-axis is − K d.. […]

NMDA NR1-1b S1S2 domain [2] = molecular target: T1, NMDA NR1-1b S1S2 domain; test: Intrinsic tryptophan fluorescence quenching and λ max of emission; conditions: for Binding to NR1-1b S1S2 by intrinsic tryptophan fluorescence: desipramine, trimipramine, imipramine 137 μM, maprotiline 3.18 mM, nortriptyline 2.08 mM, paroxetine 3.75 mM, sertraline 1.88 mM, fluvoxamine 2.81 mM; for λ max of the NR1-1b drug bound complex: excitation 290 nm, 25°C, apo 326.24 nm, drug at final quenching concentration; for Binding to NR1-1b S1S2 in intrinsic and extrinsic fluorescence assays: concentrations as high as 5.21 mM
Method: as §1
as §2, with “All” for “Protein samples were at a final concentration of 5.29 μM in buffer 3 (10 mM MES, pH 6.5, 25 mM NaCl, 1 mM glycine). All”
The fluorescence intensity of the NR1-1b S1S2 domain was determined in the presence and absence of eachantidepressant with the appropriate blank subtraction. […] For all samples, the final concentration of methanol was kept at 1.8%.

NMDA NR1-1b S1S2 domain [3] = molecular target: T1, NMDA NR1-1b S1S2 domain; test: Stern-Volmer analysis, acrylamide quenching of tryptophan fluorescence; conditions: acrylamide 16.3 to 113.9 mM, 5.29 μM NR1-1b S1S2 premixed with antidepressant; apo 1.61
Source text: Plots of (F 0/F) −1 versus acrylamide concentration were constructed.

NMDA NR1-1b S1S2 domain [4] = molecular target: T1, NMDA NR1-1b S1S2 domain; test: Extrinsic ANS fluorescence; conditions: ANS 1 : 1 with 5.29 μM NR1-1b S1S2, excitation 380 nm; drug concentrations as in Figure 4
Method: Extrinsic fluorescence studies were performed in a Cary Ec-lipse fluorometer at 25°C. All emission scans were acquired from 400 to 600 nm after excitation at 380 nm with 20 nm slit widths for emission and excitation in a 10 mm-path-length cell. Before data acquisition, samples were incubated for thirty seconds in the sample holder at 25°C. Blanks were collected both for the antidepressants and the NR1-1b S1S2 domain. Three emission spectra of identicallyprepared samples were averaged for each plot. 8-Anilino-1-naphthalenesulfonic acid (ANS, TCI America), in a 1 : 1 molar ratio, was added to 5.29 μM of the NR1-1b S1S2 domain premixed with antidepressant (at final concentrations as above for intrinsic quenching studies in addition to the SSRIs fluoxetine (8.62 μM) and fluvoxamine (2.81 mM) and the SNRI venlafaxine (29.07 μM)). As with all intrinsic assays, total methanol concentration was kept at 1.8%. Plots of intensity versus wavelength were constructed from averaged emission spectra.

Kd (NMDA NR1-1b S1S2 domain [1]) [µM]	Binding to NR1-1b S1S2 by intrinsic tryptophan fluorescence (NMDA NR1-1b S1S2 domain [2])	λ max of the NR1-1b drug bound complex (NMDA NR1-1b S1S2 domain [2]) [nm]	K sv (NMDA NR1-1b S1S2 domain [3]) [M⁻¹]	ANS emission spectrum of the NR1-1b S1S2 complex versus ANS bound to apo S1S2 (binding) (NMDA NR1-1b S1S2 domain [4])	λ max of the NR1-1b drug bound complex (NMDA NR1-1b S1S2 domain [2]; listed as Maprotiline) [nm]	Change of tryptophan fluorescence emission upon binding (NMDA NR1-1b S1S2 domain [2]; intensity versus apo NR1-1b S1S2)	Binding to NR1-1b S1S2 in intrinsic and extrinsic fluorescence assays (NMDA NR1-1b S1S2 domain [2])	Binding to NR1-1b S1S2 in intrinsic and extrinsic fluorescence assays (NMDA NR1-1b S1S2 domain [2]; listed as Citalopram)	SMILES
1090 ± 240	binding	327.27	3.02	significantly different					CC(CN(C)C)CN1c2ccccc2CCc2ccccc21 (centres unmarked) [trimipramine]
	binding	328.57	3.77	significantly different					COCCCC/C(=N\OCCN)c1ccc(C(F)(F)F)cc1 [fluvoxamine]
	binding	322.04 ± 1.83	5.92	significantly different	322.04	increases, rather than quenches			CNCCCC12CCC(c3ccccc31)c1ccccc12 [maprotiline]
	binding	326.77	2.67						CNCCCN1c2ccccc2CCc2ccccc21 [desipramine]
	did not						no binding	no evidence of binding	CN(C)CCCC1(c2ccc(F)cc2)OCc2cc(C#N)ccc21 (centres unmarked) [citalopram]
	binding	328.3	3.06	significantly different					Fc1ccc([C@@H]2CCNC[C@H]2COc2ccc3c(c2)OCO3)cc1 [paroxetine]

SMILES	Kd (NMDA NR1-1b S1S2 domain [1]) [µM]	Binding to NR1-1b S1S2 by intrinsic tryptophan fluorescence (NMDA NR1-1b S1S2 domain [2])	λ max of the NR1-1b drug bound complex (NMDA NR1-1b S1S2 domain [2]) [nm]	K sv (NMDA NR1-1b S1S2 domain [3]) [M⁻¹]	ANS emission spectrum of the NR1-1b S1S2 complex versus ANS bound to apo S1S2 (binding) (NMDA NR1-1b S1S2 domain [4])	λ max of the NR1-1b drug bound complex (NMDA NR1-1b S1S2 domain [2]; listed as Maprotiline) [nm]	Change of tryptophan fluorescence emission upon binding (NMDA NR1-1b S1S2 domain [2]; intensity versus apo NR1-1b S1S2)	Binding to NR1-1b S1S2 in intrinsic and extrinsic fluorescence assays (NMDA NR1-1b S1S2 domain [2])	Binding to NR1-1b S1S2 in intrinsic and extrinsic fluorescence assays (NMDA NR1-1b S1S2 domain [2]; listed as Citalopram)
COc1ccc(C(CN(C)C)C2(O)CCCCC2)cc1 (centres unmarked) [venlafaxine]		did not; also recorded: neither of which showed binding			confirmed the binding				
CNCCC(Oc1ccc(C(F)(F)F)cc1)c1ccccc1 (centres unmarked) [fluoxetine]		neither of which showed binding			confirmed the binding				
